Results as given in patent US4824937A, “Synthetic natriuretic peptides” (501 Advanced Peptide Development, Ltd., priority 1986, dated 1989).
Ends that are not written are not given here.

System: male normotensive Sprague-Dawley rats
Test: Effects upon electrolyte excretion (Na+, K+, Cl- in urine) after i.v. bolus in anesthetized rats
Format: in vivo, rat
Settings: 3.5 mcg/kg i.v. bolus; for ELECTROLYTE EXCRETION Cl^- / ELECTROLYTE EXCRETION K^+ / ELECTROLYTE EXCRETION Na^+: pooled urine of 8 rats
Experimental: The diuretic activities of the synthetic natriuretic peptides (SNP) of this invention and their effects upon electrolyte excretion are determined in male normotensive Sprague-Dawley rats. The animals are anesthetized with sodium pentobarbital (55 mg/kg), the femoral vein is cannulated for injection of the test compound and for infusion of Ringer's solution, the bladder is cannulated for urine collection, and the trachea is cannulated to ensure a clean airway. The animals are infused with Ringer's solution at a rate of 1.2 ml/20 min. for 20 minutes, the infusion rate is then decreased to 1.2 ml/hour for a further 20 minutes, and urine collections are started at the end of that period. Three 10-minute collections are taken as control samples, and at the end of the third 10-minute period the SNP to be tested is injected as a bolus over 30 seconds into the femoral vein. Infusion of Ringer's solution at 1.2 ml/hour is continued for the duration of the experiment, and urine samples are collected every 10 minutes over 4 hours, their respective volumes are determined, and the concentrations of Na^+, Cl^-, and K^+ are measured using a NovaBiomedical electrolyte analyzer. The above determinations are done on samples pooled from all animals in a given experiment, and urine flow is calculated as ml/min./kg body weight while electrolyte concentrations are calculated as mmol/l/gm kidney tissue.
Details of the assay method are described above, and it remains only to be stated that 8 male normotensive Sprague-Dawley rats are used in each group. […] Urine flow then decreases sharply and is at control volumes at about 40 minutes where it remains until about 140 minutes.

BG-3009: known ANP composed of 28 amino acid residues, identical with the ANP described by Flynn et al. (SLRRSSCFGGRIDRIGAQSGLGCNSFRY; not fully specified; ends and bridges not checked; UniProt P01161 123-150, looked up)
effect on Na^+ excretion, early phase (in words): sharp increases in Na^+ excretion for the first 30-40 minutes | effect on K^+ and Cl^- excretion (in words) (early phase): short-lasting decreases in K^+ and Cl^- excretion returning to control values after about 60 minutes | effect on Na^+ and Cl^- excretion, late phase (in words) (from about 140-160 minutes to 240 minutes): slight increase in Na^+ and Cl^- excretion | ELECTROLYTE EXCRETION Cl^- (10 min after injection): 10.1 mmol/l./gm. kidney tissue | ELECTROLYTE EXCRETION K^+ (10 min after injection): 1.5 mmol/l./gm. kidney tissue | ELECTROLYTE EXCRETION Na^+ (10 min after injection): 10.0 mmol/l./gm. kidney tissue | ELECTROLYTE EXCRETION Cl^- (20 min after injection): 12.8 mmol/l./gm. kidney tissue | ELECTROLYTE EXCRETION K^+ (20 min after injection): 2.4 mmol/l./gm. kidney tissue | ELECTROLYTE EXCRETION Na^+ (20 min after injection): 13.2 mmol/l./gm. kidney tissue | ELECTROLYTE EXCRETION Cl^- (30 min after injection): 12.7 mmol/l./gm. kidney tissue | ELECTROLYTE EXCRETION K^+ (30 min after injection): 4.9 mmol/l./gm. kidney tissue | ELECTROLYTE EXCRETION Na^+ (30 min after injection): 12.4 mmol/l./gm. kidney tissue | ELECTROLYTE EXCRETION Cl^- (40 min after injection): 13.0 mmol/l./gm. kidney tissue | ELECTROLYTE EXCRETION K^+ (40 min after injection): 5.6 mmol/l./gm. kidney tissue | ELECTROLYTE EXCRETION Na^+ (40 min after injection): 11.1 mmol/l./gm. kidney tissue | ELECTROLYTE EXCRETION Cl^- (50 min after injection): 14.0 mmol/l./gm. kidney tissue | ELECTROLYTE EXCRETION K^+ (50 min after injection): 6.6 mmol/l./gm. kidney tissue | ELECTROLYTE EXCRETION Na^+ (50 min after injection): 8.8 mmol/l./gm. kidney tissue | ELECTROLYTE EXCRETION Cl^- (60 min after injection): 13.5 mmol/l./gm. kidney tissue | ELECTROLYTE EXCRETION K^+ (60 min after injection): 7.4 mmol/l./gm. kidney tissue | ELECTROLYTE EXCRETION Na^+ (60 min after injection): 7.8 mmol/l./gm. kidney tissue | ELECTROLYTE EXCRETION Cl^- (70 min after injection): 13.7 mmol/l./gm. kidney tissue | ELECTROLYTE EXCRETION K^+ (70 min after injection): 7.7 mmol/l./gm. kidney tissue | ELECTROLYTE EXCRETION Na^+ (70 min after injection): 7.1 mmol/l./gm. kidney tissue | ELECTROLYTE EXCRETION Cl^- (80 min after injection): 13.0 mmol/l./gm. kidney tissue | ELECTROLYTE EXCRETION K^+ (80 min after injection): 7.9 mmol/l./gm. kidney tissue | ELECTROLYTE EXCRETION Na^+ (80 min after injection): 6.5 mmol/l./gm. kidney tissue | ELECTROLYTE EXCRETION Cl^- (90 min after injection): 13.3 mmol/l./gm. kidney tissue | ELECTROLYTE EXCRETION K^+ (90 min after injection): 8.0 mmol/l./gm. kidney tissue | ELECTROLYTE EXCRETION Na^+ (90 min after injection): 6.4 mmol/l./gm. kidney tissue | ELECTROLYTE EXCRETION Cl^- (100 min after injection): 13.3 mmol/l./gm. kidney tissue | ELECTROLYTE EXCRETION K^+ (100 min after injection): 8.2 mmol/l./gm. kidney tissue | ELECTROLYTE EXCRETION Na^+ (100 min after injection): 6.3 mmol/l./gm. kidney tissue | ELECTROLYTE EXCRETION Cl^- (110 min after injection): 13.1 mmol/l./gm. kidney tissue | ELECTROLYTE EXCRETION K^+ (110 min after injection): 8.2 mmol/l./gm. kidney tissue | ELECTROLYTE EXCRETION Na^+ (110 min after injection): 6.5 mmol/l./gm. kidney tissue | ELECTROLYTE EXCRETION Cl^- (120 min after injection): 13.7 mmol/l./gm. kidney tissue | ELECTROLYTE EXCRETION K^+ (120 min after injection): 8.5 mmol/l./gm. kidney tissue | ELECTROLYTE EXCRETION Na^+ (120 min after injection): 6.7 mmol/l./gm. kidney tissue | ELECTROLYTE EXCRETION Cl^- (130 min after injection): 13.6 mmol/l./gm. kidney tissue | ELECTROLYTE EXCRETION K^+ (130 min after injection): 8.6 mmol/l./gm. kidney tissue | ELECTROLYTE EXCRETION Na^+ (130 min after injection): 6.6 mmol/l./gm. kidney tissue | ELECTROLYTE EXCRETION Cl^- (140 min after injection): 14.8 mmol/l./gm. kidney tissue | ELECTROLYTE EXCRETION K^+ (140 min after injection): 9.0 mmol/l./gm. kidney tissue | ELECTROLYTE EXCRETION Na^+ (140 min after injection): 7.0 mmol/l./gm. kidney tissue | ELECTROLYTE EXCRETION Cl^- (150 min after injection): 15.2 mmol/l./gm. kidney tissue | ELECTROLYTE EXCRETION K^+ (150 min after injection): 9.4 mmol/l./gm. kidney tissue | ELECTROLYTE EXCRETION Na^+ (150 min after injection): 7.3 mmol/l./gm. kidney tissue | ELECTROLYTE EXCRETION Cl^- (160 min after injection): 14.2 mmol/l./gm. kidney tissue | ELECTROLYTE EXCRETION K^+ (160 min after injection): 9.4 mmol/l./gm. kidney tissue | ELECTROLYTE EXCRETION Na^+ (160 min after injection): 7.4 mmol/l./gm. kidney tissue | ELECTROLYTE EXCRETION Cl^- (170 min after injection): 14.4 mmol/l./gm. kidney tissue | ELECTROLYTE EXCRETION K^+ (170 min after injection): 9.2 mmol/l./gm. kidney tissue | ELECTROLYTE EXCRETION Na^+ (170 min after injection): 7.7 mmol/l./gm. kidney tissue | ELECTROLYTE EXCRETION Cl^- (180 min after injection): 14.8 mmol/l./gm. kidney tissue | ELECTROLYTE EXCRETION K^+ (180 min after injection): 9.1 mmol/l./gm. kidney tissue | ELECTROLYTE EXCRETION Na^+ (180 min after injection): 8.3 mmol/l./gm. kidney tissue | ELECTROLYTE EXCRETION Cl^- (190 min after injection): 14.4 mmol/l./gm. kidney tissue | ELECTROLYTE EXCRETION K^+ (190 min after injection): 8.7 mmol/l./gm. kidney tissue | ELECTROLYTE EXCRETION Na^+ (190 min after injection): 8.7 mmol/l./gm. kidney tissue | ELECTROLYTE EXCRETION Cl^- (200 min after injection): 14.7 mmol/l./gm. kidney tissue | ELECTROLYTE EXCRETION K^+ (200 min after injection): 8.5 mmol/l./gm. kidney tissue | ELECTROLYTE EXCRETION Na^+ (200 min after injection): 9.2 mmol/l./gm. kidney tissue | ELECTROLYTE EXCRETION Cl^- (210 min after injection): 15.0 mmol/l./gm. kidney tissue | ELECTROLYTE EXCRETION K^+ (210 min after injection): 8.4 mmol/l./gm. kidney tissue | ELECTROLYTE EXCRETION Na^+ (210 min after injection): 9.6 mmol/l./gm. kidney tissue | ELECTROLYTE EXCRETION Cl^- (220 min after injection): 15.3 mmol/l./gm. kidney tissue | ELECTROLYTE EXCRETION K^+ (220 min after injection): 8.3 mmol/l./gm. kidney tissue | ELECTROLYTE EXCRETION Na^+ (220 min after injection): 9.4 mmol/l./gm. kidney tissue | ELECTROLYTE EXCRETION Cl^- (230 min after injection): 14.8 mmol/l./gm. kidney tissue | ELECTROLYTE EXCRETION K^+ (230 min after injection): 8.3 mmol/l./gm. kidney tissue | ELECTROLYTE EXCRETION Na^+ (230 min after injection): 9.2 mmol/l./gm. kidney tissue | ELECTROLYTE EXCRETION Cl^- (240 min after injection): 15.7 mmol/l./gm. kidney tissue | ELECTROLYTE EXCRETION K^+ (240 min after injection): 8.5 mmol/l./gm. kidney tissue | ELECTROLYTE EXCRETION Na^+ (240 min after injection): 9.2 mmol/l./gm. kidney tissue
